Experimental data published in patent US7939320B2, “Astaxanthine biosynthesis in eukaryotes” (Peter und Traudl Engelhorn-Stiftung zur Forderung der …, priority 2005, dated 2011).

Key:
[1] = system: H. pluvialis phytoene desaturase Leu504Arg mutants; test: Resistance to norflurazon of Leu504Arg phytoene desaturase mutants compared with wild type; format: cell-based, Haematococcus pluvialis; conditions: mutants with leucine to arginine substitution at position 504 of PDS
Text: The amino acid substitution according to the invention from leucine to arginine at position 504 of the H. pluvialis PDS protein corresponds to the Leu437Arg substitution in Synechococcus PCC7942 (FIG. 2). For this purpose, the Leu codon “CTG” is replaced by the Arg codon “CGC” by directed mutagenesis. This mutation imparts, to the mutants, the highest known resistance factor to norflurazon. The resistance which has been conferred imparts, to the mutants according to the invention, a resistance to norflurazon which is up to 70-fold higher in comparison with the wild type. In accordance with the invention, norflurazon concentrations of […] are used as selection substance.
A portion of the phytoene desaturase 6.1 kilobases in size was isolated from a genomic DNA library of H. pluvialis and subcloned into the multiple cloning site (MCS) of the pBluescriptSK vector (stratagene) via the restriction cleavage sites XbaI and XhoI. A nucleotide substitution from CTG to CGC was carried out via directed mutagenesis with the primers PDS-Qmut-plu2 CCAAGCAGAAGTACCGCGCCTCCATGGAGGG (SEQ ID NO: 8)and PDS-Qmut-min2 CCCTCCATGGAGGCGCGGTACTTCTGCTTGG (SEQ ID NO: 9); the plasmid was named pPDS-Q2. This nucleotide substitution led to an amino acid substitution from leucine to arginine in codon 504 (FIG. 2), and confers to mutants a resistance to norflurazon.

H. pluvialis WT cells = test: Growth of H. pluvialis WT cells on OHA plates containing norflurazon; format: cell-based, Haematococcus pluvialis; conditions: norflurazon 0.7 μM

CNc1cnn(-c2cccc(C(F)(F)F)c2)c(=O)c1Cl [norflurazon]
resistance to norflurazon, fold higher in comparison with the wild type [1]: up to 70 fold | growth of the WT cells (H. pluvialis WT cells): greatly inhibited
